These results are taken from patent US12180178B2, “Heteroaryl azole compound and pest control agent” (NIPPON SODA CO., LTD., priority 2018, dated 2024).

Each structure is given as a SMILES string. Where two headings read alike, the source gives them in different places.

Holding throughout (type): in vivo
In one assay the test system is Aphis craccivora. Kind of assay: Test of Efficacy on Aphis craccivora (spray on black-eyed peas). To be noted: 96 h, read-out: insecticidal rate. As to the method:
5 parts of the heteroaryl azole compound of the present invention, 93.6 parts of dimethylformamide, and 1.4 parts of polyoxyethylene alkyl aryl ether were mixed and dissolved to prepare emulsion (I) containing 5% of the active ingredient.
An insecticidal rate was calculated according to the following expression: Insecticidal rate (%)=(The number of dead insects/The number of tested insects)×100
Seedlings of black-eyed peas were raised in 10-cm pots. Aphis craccivora nymphs were inoculated onto primary leaves. The emulsion (I) was diluted with water such that the concentration of the compound of the present invention was 125 ppm. The dilution was sprayed to the black-eyed peas parasitized by the Aphis craccivora nymphs. The black-eyed peas were placed in a thermostat chamber having a temperature of 25° C. and a humidity of 60%. Life and death of Aphis craccivora were determined after 4 days from the spraying, and the insecticidal rate was calculated. The test was conducted in duplicate.

Another assay concerns Mythimna separata. Kind of assay: Test of Efficacy on Mythimna separata (test feed). To be noted: 1 μl of emulsion (I) (5% active ingredient) in 0.8 g artificial feed; second instar larvae; 25° C.; fifth day. As to the method:
5 parts of the heteroaryl azole compound of the present invention, 93.6 parts of dimethylformamide, and 1.4 parts of polyoxyethylene alkyl aryl ether were mixed and dissolved to prepare emulsion (I) containing 5% of the active ingredient. For a control, 98.5 parts of dimethylformamide and 1.5 parts of polyoxyethylene alkyl aryl ether were mixed and dissolved to prepare emulsion (II). An insecticidal rate was calculated according to the following expression: Insecticidal rate (%)=(The number of dead insects/The number of tested insects)×100 0.8 g of commercially available artificial feed (Insecta LFS, manufactured by Nosan Corp.) and 1 μl of the emulsion (I) were well mixed to obtain test feed. A plastic test container (capacity: 1.4 ml) was packed with 0.2 g of the test feed per treatment plot. Then, two second instar larvae of Mythimna separata were inoculated to each treatment plot. A plastic lid was put on the test container so as to prevent escape of the second instar larvae of Mythimna separata. The container was placed in a thermostat chamber of 25° C. On the fifth day, the insecticidal rate and the food intake were examined. The test was conducted in duplicate. The insecticidal rate and the food intake of a control plot were examined in the same way as in Test Example 1 except that the emulsion (I) was changed to the emulsion (II).

The next assay has as its system Plutella xylostella. Kind of assay: Test of Efficacy on Plutella xylostella (cabbage leaf dip). The note with it: foliar, 72 h, cabbage leaves dipped 30 seconds, second instar larvae, after 3 days, read-out: insecticidal rate. As to the method: 5 parts of the heteroaryl azole compound of the present invention, 93.6 parts of dimethylformamide, and 1.4 parts of polyoxyethylene alkyl aryl ether were mixed and dissolved to prepare emulsion (I) containing 5% of the active ingredient. An insecticidal rate was calculated according to the following expression: Insecticidal rate (%)=(The number of dead insects/The number of tested insects)×100 The emulsion (I) was diluted with water such that the concentration of the compound of the present invention was 125 ppm. Cabbage leaves were dipped in the dilution for 30 seconds. The resulting cabbage leaves were placed in a petri dish. Five second instar larvae of Plutella xylostella were released thereto. The petri dish was placed in a thermostat chamber having a temperature of 25° C. and a humidity of 60%. Life and death were determined after 3 days from the release of the insects, and the insecticidal rate was calculated. The test was conducted in duplicate.

Setting [1] is: 125 ppm, sprayed to black-eyed peas, nymphs, after 4 days.

Consider `CCS(=O)(=O)c1cnc(-c2ncccn2)nc1-c1ncn(-c2ccc(C(F)(F)C(F)(F)F)cc2)n1` [d-18], for which the pest or weed control at 125 ppm with Aphis craccivora (setting [1]) is at least 80%. Take `CCS(=O)(=O)c1cc(C2CC2)cnc1-c1ncn(/C=C(\F)C(F)(F)F)c1C` [a-14]: the “insecticidal rate or food intake as compared with the control plot” value with Mythimna separata is “insecticidal rate of 100% for Mythimna separata or a food intake of 10% or less as compared with the control plot”.

As for `CCS(=O)(=O)c1cc(C2CC2)cnc1-c1ncn(-c2ccc(OC(F)(F)C(F)F)cc2)n1` [d-15], the “insecticidal rate or food intake as compared with the control plot” value in the assay on Mythimna separata is recorded as “insecticidal rate of 100% for Mythimna separata or a food intake of 10% or less as compared with the control plot”. The pest or weed control at 125 ppm in the assay with Plutella xylostella was at least 80%. On to `CCS(=O)(=O)c1cc(C(F)(F)F)cnc1-c1ncn(CC(F)(F)C(F)(F)C(F)(F)F)c1C` [a-5], for which, in the assay on Mythimna separata, the “insecticidal rate or food intake as compared with the control plot” value is recorded as “insecticidal rate of 100% for Mythimna separata or a food intake of 10% or less as compared with the control plot”. Turning to `CCS(=O)(=O)c1cc(-c2ccccn2)cnc1-c1ncn(-c2ccc(OC(F)(F)C(F)F)cc2)n1` [d-16], the pest or weed control at 125 ppm in the assay on Aphis craccivora (setting [1]) and in the assay on Plutella xylostella was at least 80% throughout. In the assay on Mythimna separata, the “insecticidal rate or food intake as compared with the control plot” value was “insecticidal rate of 100% for Mythimna separata or a food intake of 10% or less as compared with the control plot”.

`CCS(=O)(=O)c1cc(C2(C)CC2)cnc1-c1ncn(/C=C(\F)C(F)(F)C(F)(F)C(F)(F)F)n1` [b-22]: the “insecticidal rate or food intake as compared with the control plot” value in the assay on Mythimna separata was “insecticidal rate of 100% for Mythimna separata or a food intake of 10% or less as compared with the control plot”.

With `CCS(=O)(=O)c1cc(C2CC2)cnc1-c1ncn(CC(F)(F)C(F)(F)C(F)(F)F)c1C` [c-6], the pest or weed control at 125 ppm in the assay with Aphis craccivora (setting [1]) was at least 80%. Moreover, in the assay on Mythimna separata, the “insecticidal rate or food intake as compared with the control plot” value is reported as “insecticidal rate of 100% for Mythimna separata or a food intake of 10% or less as compared with the control plot”. For the compound `CCS(=O)(=O)c1cc(-c2ccccn2)cnc1-c1ncn(-c2ccc(OC(F)(F)F)cc2)c1C` [d-25], the pest or weed control at 125 ppm with Aphis craccivora (setting [1]) and with Plutella xylostella was at least 80% in each case. The “insecticidal rate or food intake as compared with the control plot” value with Mythimna separata is on record as “insecticidal rate of 100% for Mythimna separata or a food intake of 10% or less as compared with the control plot”. `CCS(=O)(=O)c1cc(Br)cnc1-c1ncn(CC(F)(F)C(F)(F)C(F)(F)F)c1C` [c-7]: the pest or weed control at 125 ppm with Aphis craccivora was at least 80%.

Take `CCS(=O)(=O)c1cc(C2(C)CC2)cnc1-c1ncn(-c2ccc(OC(F)(F)F)cc2)n1` [d-14]: the pest or weed control at 125 ppm in the assay with Aphis craccivora (setting [1]) was at least 80%. Moreover, in the assay on Mythimna separata, the “insecticidal rate or food intake as compared with the control plot” value was “insecticidal rate of 100% for Mythimna separata or a food intake of 10% or less as compared with the control plot”. As for `CCS(=O)(=O)c1cc(-c2ccccn2)cnc1-c1ncn(-c2ccc(OC(F)(F)F)cc2)c1Br` [d-23], the pest or weed control at 125 ppm in the assay on Plutella xylostella was at least 80%.

On to `CCS(=O)(=O)c1cc(-c2cc(F)cc(F)c2)cnc1-c1ncn(/C=C(\F)C(F)(F)C(F)(F)F)n1` [b-3], for which the “insecticidal rate or food intake as compared with the control plot” value in the assay with Mythimna separata is “insecticidal rate of 100% for Mythimna separata or a food intake of 10% or less as compared with the control plot”. On to `CCS(=O)(=O)c1ccc(-n2cncn2)nc1-c1ncn(-c2ccc(OC(F)(F)F)cc2)c1C` [d-27], for which the pest or weed control at 125 ppm in the assay on Aphis craccivora (setting [1]) and with Plutella xylostella was at least 80% each time. In addition, the “insecticidal rate or food intake as compared with the control plot” value with Mythimna separata is on record as “insecticidal rate of 100% for Mythimna separata or a food intake of 10% or less as compared with the control plot”.

Consider `CCS(=O)(=O)c1cc(-c2ncccn2)cnc1-c1ncn(CC(F)(F)C(F)(F)F)c1C` [c-2], for which the pest or weed control at 125 ppm with Aphis craccivora (setting [1]) was at least 80%. Further, the “insecticidal rate or food intake as compared with the control plot” value in the assay on Mythimna separata is given as “insecticidal rate of 100% for Mythimna separata or a food intake of 10% or less as compared with the control plot”. In the case of `CCS(=O)(=O)c1ccc(S(=O)(=O)CC)c(-c2cn(-c3ccc(OC(F)(F)F)cc3)cn2)n1` [d-21], the pest or weed control at 125 ppm in the assay with Aphis craccivora (setting [1]) is at least 80%. `CCS(=O)(=O)c1ccc(-n2cncn2)nc1-c1ncn(-c2ccc(OC(F)(F)F)cc2)c1Br` [d-26]: the pest or weed control at 125 ppm with Aphis craccivora (setting [1]) and in the assay with Plutella xylostella was at least 80% throughout. Also, the “insecticidal rate or food intake as compared with the control plot” value with Mythimna separata was “insecticidal rate of 100% for Mythimna separata or a food intake of 10% or less as compared with the control plot”. For the compound `CCS(=O)(=O)c1cc(-c2ncccn2)cnc1-c1ncn(-c2ccc(C(F)(F)F)cn2)n1` [d-5], the “insecticidal rate or food intake as compared with the control plot” value with Mythimna separata was “insecticidal rate of 100% for Mythimna separata or a food intake of 10% or less as compared with the control plot”. Also, the pest or weed control at 125 ppm in the assay on Plutella xylostella is at least 80%. For the compound `CCS(=O)(=O)c1cc(-c2ncccn2)cnc1-c1ncn(/C=C(\F)C(F)(F)C(F)(F)F)n1` [b-12], the “insecticidal rate or food intake as compared with the control plot” value with Mythimna separata is “insecticidal rate of 100% for Mythimna separata or a food intake of 10% or less as compared with the control plot”.

`CCS(=O)(=O)c1cc(Br)cnc1-c1ncn(CC(F)(F)C(F)(F)F)c1C` [c-4]: the pest or weed control at 125 ppm in the assay on Aphis craccivora (setting [1]) is at least 80%. As for `CCS(=O)(=O)c1cc(C2CC2)cnc1-c1ncn(-c2ccc(SC(F)(F)F)cc2)n1` [d-9], the “insecticidal rate or food intake as compared with the control plot” value with Mythimna separata is recorded as “insecticidal rate of 100% for Mythimna separata or a food intake of 10% or less as compared with the control plot”. As for `CCS(=O)(=O)c1ccc(Cl)nc1-c1ncn(-c2ccc(OC(F)(F)F)cc2)n1` [d-10], in the assay on Aphis craccivora (setting [1]), the pest or weed control at 125 ppm is at least 80%. Further, the “insecticidal rate or food intake as compared with the control plot” value in the assay on Mythimna separata is on record as “insecticidal rate of 100% for Mythimna separata or a food intake of 10% or less as compared with the control plot”.

`CCS(=O)(=O)c1ccc(-n2cncn2)nc1-c1ncn(-c2ccc(C(F)(F)F)cn2)n1` [d-3]: the pest or weed control at 125 ppm in the assay on Aphis craccivora (setting [1]) is at least 80%. The “insecticidal rate or food intake as compared with the control plot” value in the assay on Mythimna separata is on record as “insecticidal rate of 100% for Mythimna separata or a food intake of 10% or less as compared with the control plot”. Turning to `CCS(=O)(=O)c1cc(C(F)(F)F)cnc1-c1ncn(/C=C(\F)C(F)(F)C(F)(F)F)c1C` [a-4], in the assay on Mythimna separata, the “insecticidal rate or food intake as compared with the control plot” value was “insecticidal rate of 100% for Mythimna separata or a food intake of 10% or less as compared with the control plot”. Turning to `CCS(=O)(=O)c1cc(C2CC2)cnc1-c1ncn(CC(F)(F)C(F)(F)F)c1C` [c-3], the pest or weed control at 125 ppm in the assay with Aphis craccivora (setting [1]) was at least 80%. Consider `CCS(=O)(=O)c1cc(Br)cnc1-c1ncn(/C=C(\F)C(F)(F)C(F)(F)C(F)F)n1` [b-20], for which the “insecticidal rate or food intake as compared with the control plot” value with Mythimna separata is listed as “insecticidal rate of 100% for Mythimna separata or a food intake of 10% or less as compared with the control plot”.

`CCS(=O)(=O)c1cc(-c2ccccn2)cnc1-c1ncn(CC(F)(F)C(F)(F)F)c1C` [c-1, 5′-(ethylsulfonyl)-6′-(5-methyl-1-(2,2,3,3,3-pentafluoropropyl)-1H-imidazol-4-yl)-2,3′-bipyridine]: the pest or weed control at 125 ppm with Aphis craccivora (setting [1]) is at least 80%. Further, the “insecticidal rate or food intake as compared with the control plot” value in the assay with Mythimna separata is given as “insecticidal rate of 100% for Mythimna separata or a food intake of 10% or less as compared with the control plot”. For `CCS(=O)(=O)c1ccc(-n2cncn2)nc1-c1ncn(-c2ccc(OC(F)(F)F)cc2)n1` [d-11] the same measures were at least 80% and “insecticidal rate of 100% for Mythimna separata or a food intake of 10% or less as compared with the control plot”. `CCS(=O)(=O)c1cc(-c2ncccn2)cnc1-c1ncn(CC(F)(F)C(F)(F)C(F)(F)C(F)F)c1C` [a-15]: the “insecticidal rate or food intake as compared with the control plot” value in the assay on Mythimna separata is “insecticidal rate of 100% for Mythimna separata or a food intake of 10% or less as compared with the control plot”.

With `C=C(C)c1cnc(-c2ncn(-c3ccc(OC(F)(F)F)cc3)n2)c(S(=O)(=O)CC)c1` [d-13], the “insecticidal rate or food intake as compared with the control plot” value in the assay on Mythimna separata is given as “insecticidal rate of 100% for Mythimna separata or a food intake of 10% or less as compared with the control plot”.

In the case of `CCS(=O)(=O)c1cc(C2CC2)cnc1-c1ncn(/C=C(\F)C(F)(F)C(F)(F)F)n1` [b-10], the “insecticidal rate or food intake as compared with the control plot” value in the assay with Mythimna separata is on record as “insecticidal rate of 100% for Mythimna separata or a food intake of 10% or less as compared with the control plot”.
